Where two headings read alike, the source gives them in different places.
Tests used:
Type in all cases: biochemical
Aurora A = target: T1, Aurora A (Homo sapiens, UniProt O14965); experiment: Aurora kinase A Kinase-Glo kinase assay; conditions: Aurora A assay, 5 μM ATP, read-out: IC50
T1 construct: GST-Aurora A (residues S123-S401); GST (N); made in house; host or cells: Sf9 insect cells
T1 sequence (O14965 123-401): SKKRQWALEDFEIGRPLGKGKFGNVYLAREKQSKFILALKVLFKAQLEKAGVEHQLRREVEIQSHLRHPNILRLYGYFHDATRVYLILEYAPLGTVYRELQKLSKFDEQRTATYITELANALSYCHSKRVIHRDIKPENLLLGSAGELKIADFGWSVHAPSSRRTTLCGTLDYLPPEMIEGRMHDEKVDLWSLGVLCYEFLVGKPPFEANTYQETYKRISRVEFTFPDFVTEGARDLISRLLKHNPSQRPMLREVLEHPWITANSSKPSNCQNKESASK
Description: The recombinant GST-Aurora A (residues S123-S401) containing kinase domain were expressed in Sf9 insect cells. The kinase assay were carried out in 96-well plates with tested compound in a final volume of 50 μl reaction at 37° C. for 90 minutes with following components: 50 mM Tris-HCl pH 7.4, 10 mM NaCl, 10 mM MgCl2, 0.01% BSA, 5 μM ATP, 1 mM DTT and 15 μM tetra(LRRASLG) peptide, and 150 ng recombinant Aurora A. Following incubation, 50 μl Kinase-Glo Plus Reagent (Promega, Madison, Wis., USA) was added to each well and the mixture was incubated at 25° C. for 20 min. A 70-μL aliquot of each reaction mixture was transferred to a black microtiter plate and the luminescence was measured on Wallac Vector 1420 multilabel counter (PerkinElmer, Shelton, Conn., USA).

wt-FLT3 = target: T2, wt-FLT3 (Homo sapiens, UniProt P36888); experiment: FLT3 WT Kinase-Glo assay; conditions: FLT3 WT Kinase-Glo, 1 μM ATP; read-out: IC50
T2 construct: FLT3 kinase catalytic domain (residues Y567˜S993); made in house; host or cells: Sf9 insect cells (baculovirus, pBac-PAK8-GST-FLT3-KD plasmid)
T2 sequence (P36888 567-993): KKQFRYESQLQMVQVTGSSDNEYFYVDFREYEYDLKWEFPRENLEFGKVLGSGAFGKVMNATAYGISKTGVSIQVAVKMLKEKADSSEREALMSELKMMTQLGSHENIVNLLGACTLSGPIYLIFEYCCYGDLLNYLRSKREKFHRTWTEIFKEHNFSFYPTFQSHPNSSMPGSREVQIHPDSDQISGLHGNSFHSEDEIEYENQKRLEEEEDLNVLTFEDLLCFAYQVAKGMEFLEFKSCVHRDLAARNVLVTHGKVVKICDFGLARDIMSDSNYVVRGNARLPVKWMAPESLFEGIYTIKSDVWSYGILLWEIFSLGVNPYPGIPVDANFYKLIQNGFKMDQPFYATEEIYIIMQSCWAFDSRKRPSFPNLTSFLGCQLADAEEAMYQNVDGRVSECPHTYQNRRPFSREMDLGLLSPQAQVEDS
Description: GST-FLT3-KD^WT containing the FLT3 kinase catalytic domain (residues Y567˜S993) were expressed in Sf9 insect cells transfected the baculovirus containing pBac-PAK8-GST-FLT3-KD plasmid. […] Following incubation, 50 μl Kinase-Glo Plus Reagent (Promega, Madison, Wis., USA) was added to each well and the mixture was incubated at 25° C. for 20 min. A 70-μL aliquot of each reaction mixture was transferred to a black microtiter plate and the luminescence was measured on Wallac Vector 1420 multilabel counter (PerkinElmer, Shelton, Conn., USA).

VEGFR1 = target: T3, VEGFR1 (Homo sapiens, UniProt P17948); experiment: VEGFR1 Kinase-Glo kinase assay; conditions: VEGFR1 assay, 1 μM ATP, read-out: IC50
T3 construct: GST-VEGFR1 (residues R781-I1338); GST (N); made in house; host or cells: Sf9 insect cells
T3 sequence (P17948 781-1338): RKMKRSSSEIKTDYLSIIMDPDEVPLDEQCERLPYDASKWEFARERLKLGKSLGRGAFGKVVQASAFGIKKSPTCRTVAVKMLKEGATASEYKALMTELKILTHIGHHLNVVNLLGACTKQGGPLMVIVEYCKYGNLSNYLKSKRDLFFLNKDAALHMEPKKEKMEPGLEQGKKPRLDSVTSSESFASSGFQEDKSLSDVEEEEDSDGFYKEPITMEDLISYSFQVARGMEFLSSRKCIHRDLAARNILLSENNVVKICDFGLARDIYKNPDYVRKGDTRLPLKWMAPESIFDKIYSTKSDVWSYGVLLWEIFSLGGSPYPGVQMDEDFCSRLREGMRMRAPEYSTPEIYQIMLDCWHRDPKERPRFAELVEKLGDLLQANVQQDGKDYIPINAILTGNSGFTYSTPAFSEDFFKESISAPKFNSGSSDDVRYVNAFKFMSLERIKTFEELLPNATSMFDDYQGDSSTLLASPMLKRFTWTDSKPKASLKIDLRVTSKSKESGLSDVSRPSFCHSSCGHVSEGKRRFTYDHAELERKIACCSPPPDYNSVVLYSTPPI
Description: (§1) The recombinant GST-VEGFR1 (residues R781-I1338) or GST-VEGFR2 (residues V789-V1356) containing kinase domain were expressed in Sf9 insect cells. The kinase assay were carried out in 96-well plates with tested compound in a final volume of 50 μl reaction at 30° C. for 120 minutes with following components: 25 mM HEPES pH 7.4, 10 mM MgCl2, 4 mM MnCl2, 0.5 mM Na3VO4, 2 mM DTT, 0.02% Triton X100, 0.01% BSA, 1 μM ATP, 2 μM polyGlu4:Tyr peptide, 50˜100 ng recombinant VEGFR1 or VEGFR2. Following incubation, 50 μl Kinase-Glo Plus Reagent (Promega, Madison, Wis., USA) was added to each well and the mixture was incubated at 25° C. for 20 min. A 70-μL aliquot of each reaction mixture was transferred to a black microtiter plate and the luminescence was measured on Wallac Vector 1420 multilabel counter (PerkinElmer, Shelton, Conn., USA).

VEGFR2 = target: T4, VEGFR2 (Homo sapiens, UniProt P35968); experiment: VEGFR2 Kinase-Glo kinase assay; conditions: VEGFR2 assay, 1 μM ATP, read-out: IC50
T4 construct: GST-VEGFR2 (residues V789-V1356); GST (N); made in house; host or cells: Sf9 insect cells
Description: as §1

T4 sequence (P35968 789-1356): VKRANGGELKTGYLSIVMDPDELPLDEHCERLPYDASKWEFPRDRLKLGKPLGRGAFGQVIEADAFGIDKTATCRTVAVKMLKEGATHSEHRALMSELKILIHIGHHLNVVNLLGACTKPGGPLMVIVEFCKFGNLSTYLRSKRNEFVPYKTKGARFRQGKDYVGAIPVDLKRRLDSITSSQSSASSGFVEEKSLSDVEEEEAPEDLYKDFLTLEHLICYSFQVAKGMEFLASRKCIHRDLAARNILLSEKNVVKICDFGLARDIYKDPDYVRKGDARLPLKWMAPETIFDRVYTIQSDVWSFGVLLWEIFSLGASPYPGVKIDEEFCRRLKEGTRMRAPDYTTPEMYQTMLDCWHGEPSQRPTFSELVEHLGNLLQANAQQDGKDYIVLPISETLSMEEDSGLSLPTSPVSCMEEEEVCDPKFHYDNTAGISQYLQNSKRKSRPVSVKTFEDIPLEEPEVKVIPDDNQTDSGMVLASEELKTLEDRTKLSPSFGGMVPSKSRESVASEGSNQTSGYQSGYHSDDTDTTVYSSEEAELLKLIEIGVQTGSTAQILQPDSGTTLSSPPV

Compound | IC50 (Aurora A; bound in nM) [nM] | IC50 (Aurora A; bound in μM) [nM] | IC50 (wt-FLT3) [nM] | IC50 (VEGFR1; bound in μM) [µM] | IC50 (VEGFR2; bound in μM) [µM] | IC50 (VEGFR2; ranges in nM) [µM] | IC50 (VEGFR1; bound in nM) [µM]
CC(C)(C)c1cc(NC(=O)Nc2ccc(-c3cc(NC(=O)c4ccc(OCCN5CCOCC5)cc4)[nH]n3)cc2)no1 [Compound 44, N1-(3-4-[([5-(tert-butyl)-3-isoxazolyl]aminocarbonyl)amino]phenyl-1H-5-pyrazolyl)-4-(2-morpholinoethoxy)benzamide] | < 200 | < 1000 | 1 to 20 | < 1 | < 1 | 0.001 to 0.055 | < 0.1
Cc1cc(NC(=O)Nc2ccc(-c3cc(NC(=O)c4ccc(N5CCN(C)CC5)cc4)[nH]n3)cc2C)no1 [Compound 47, N1-3-[3-methyl-4-([(5-methyl-3-isoxazolyl)amino]carbonylamino)phenyl]-1H-5-pyrazolyl-4-(4-methylpiperazino)benzamide] |  | < 1000 | 1 to 20 |  | < 1 | 0.001 to 0.055 | 
O=C(NCc1ccc(-c2cc(NC(=O)c3ccc(OCCN4CCOCC4)cc3)[nH]n2)cc1)Nc1ccccc1 [Compound 61a, N1-[3-(4-[(anilinocarbonyl)amino]methylphenyl)-1H-5-pyrazolyl]-4-(2-morpholinoethoxy)benzamide] |  | < 1000 | 1 to 20 |  | < 1 | 0.001 to 0.055 | 
CN1CCN(c2ccc(C(=O)Nc3cc(-c4ccc(CNC(=O)OCc5ccccc5)cc4)n[nH]3)cc2)CC1 [Compound 70, Benzyl-N-[4-(5-[4-(4-methylpiperazino)benzoyl]amino-1H-3-pyrazolyl)benzyl]carbamate] |  | < 1000 | 1 to 20 | < 1 | < 1 | 0.055 to 0.4 | < 0.1
Cc1nc(Nc2cc(-c3cccc(NS(=O)(=O)c4ccccc4)c3)n[nH]2)cc(N2CCN(C)CC2)n1 [Compound 85, N1-[3-(5-[2-methyl-6-(4-methylpiperazino)-4-pyrimidinyl]amino-1H-3-pyrazolyl)phenyl]-1-benzenesulfonamide] |  | < 1000 | 1 to 20 | < 1 | < 1 | 0.055 to 0.4 | 
CCN1CCN(c2cc(Nc3ncc(-c4ccc(N)cc4)s3)nc(C)n2)CC1 [Compound 102] | < 200 |  | 1 to 20 |  |  |  | 
Cc1nc(Nc2ncc(-c3ccc(NC(=O)Nc4cc(C)on4)cc3)s2)cc(N2CCN(C)CC2)n1 [Compound 103, N-(5-methyl-3-isoxazolyl)-N′-[4-(2-[2-methyl-6-(4-methylpiperazino)-4-pyrimidinyl]amino-1,3-thiazol-5-yl)phenyl]urea] |  | < 1000 |  |  |  |  | 
Cc1cc(NC(=O)Nc2ccc(-c3cnc(NC(=O)c4ccc(OCCN5CCOCC5)cc4)s3)cc2)no1 [Compound 120, N1-5-[4-([(5-methyl-3-isoxazolyl)amino]carbonylamino)phenyl]-1,3-thiazol-2-yl-4-(2-morpholinoethoxy)benzamide] | < 200 |  |  |  |  |  | 

Next, values leading:

IC50 (Aurora A; bound in nM) [nM] | IC50 (Aurora A; bound in μM) [nM] | IC50 (wt-FLT3) [nM] | IC50 (VEGFR1; bound in μM) [µM] | IC50 (VEGFR2; bound in μM) [µM] | IC50 (VEGFR2; ranges in nM) [µM] | IC50 (VEGFR1; bound in nM) [µM] | Compound
< 200 | < 1000 |  |  |  |  |  | CN1CCN(c2ccc(C(=O)Nc3cc(-c4ccc(NC(=O)c5ccccc5)cc4)n[nH]3)cc2)CC1 [Compound 10, N1-3-[4-(benzoylamino)phenyl]-1H-5-pyrazolyl-4-(4-methylpiperazino)benzamide]
 | < 1000 | 1 to 20 | < 1 | < 1 | 0.055 to 0.4 |  | CN1CCN(c2ccc(C(=O)Nc3cc(-c4cccc(NS(=O)(=O)c5ccccc5)c4)n[nH]3)cc2)CC1 [Compound 12, N1-(3-3-[(phenylsulfonyl)amino]phenyl-1H-5-pyrazolyl)-4-(4-methylpiperazino)benzamide]
 | < 1000 | 1 to 20 | < 1 | < 1 | 0.055 to 0.4 |  | Cc1cccc(S(=O)(=O)Nc2cccc(-c3cc(NC(=O)c4ccc(N5CCN(C)CC5)cc4)[nH]n3)c2)c1 [Compound 15, N1-[3-(3-[(3-methylphenyl)sulfonyl]aminophenyl)-1H-5-pyrazolyl]-4-(4-methylpiperazino)benzamide]
 | < 1000 | 1 to 20 |  | < 1 | 0.001 to 0.055 |  | CN1CCN(c2ccc(C(=O)Nc3cc(-c4ccc(NC(=O)Nc5ccccc5)cc4)n[nH]3)cc2)CC1 [Compound 30, N1-(3-4-[(anilinocarbonyl)amino]phenyl-1H-5-pyrazolyl)-4-(4-methylpiperazino)benzamide]
< 200 | < 1000 | 1 to 20 | < 1 | < 1 | 0.001 to 0.055 |  | Cc1cc(NC(=O)Nc2ccc(-c3cc(NC(=O)c4ccc(N5CCN(C)CC5)cc4)[nH]n3)cc2)no1 [Compound 32, N1-3-[4-([(5-methyl-3-isoxazolyl)amino]carbonylamino)phenyl]-1H-5-pyrazolyl-4-(4-methylpiperazino)benzamide]
< 200 | < 1000 | 1 to 20 | < 1 | < 1 | 0.001 to 0.055 | < 0.1 | CN1CCN(Cc2ccc(C(=O)Nc3cc(-c4ccc(NC(=O)Nc5cc(C(C)(C)C)on5)cc4)n[nH]3)cc2)CC1 [Compound 43, N1-(3-4-[([5-(tert-butyl)-3-isoxazolyl]aminocarbonyl)amino]phenyl-1H-5-pyrazolyl)-4-[(4-methylpiperazino)methyl]benzamide]

— patent US9255072B2, “Pyrazole compounds and thiazole compounds as protein kinases inhibitors” (National Health Rsearch Institutes, priority 2011, dated 2016)
